Data from patent US9732060B2, “Aminotriazine derivative and pharmaceutical composition comprising the same” (Shionogi & Co., Ltd., priority 2013, dated 2017).

Key:
[1] = Solubility test (1% DMSO, artificial intestinal juice pH 6.8); format: physicochemical; details: artificial intestinal juice pH 6.8 with 1% DMSO, 25 °C, fassgf or other biorelevant, kinetic from dmso stock, artificial intestinal juice pH 6.8, 25 degrees Celsius, read-out: Solubulity
[2] = Metabolism stability test, pooled human hepatic microsomes; format: in vitro ADME; details: remaining rate, human liver microsomes, 30 minutes, compound concentration 0.5 μmol/L
Procedure: Using commercially available pooled human hepatic microsomes, a test compound is reacted for a constant time, a remaining rate is calculated by comparing a reacted sample and an unreacted sample, thereby, a degree of metabolism in liver is assessed.
A reaction was performed (oxidative reaction) at 37° C. for 0 minute or 30 minutes in the presence of 1 mmol/L NADPH in 0.2 mL of a buffer (50 mmol/L tris-HCl pH 7.4, 150 mmol/L potassium chloride, 10 mmol/L magnesium chloride) containing 0.5 mg protein/mL of human liver microsomes. After the reaction, 50 μL of the reaction solution was added to 100 μL of a methanol/acetonitrile=1/1 (v/v) mixed and centrifuged at 3000 rpm for 15 minutes. The test compound in the supernatant was quantified by LC/MS/MS, and a remaining amount of the test compound after the reaction was calculated, letting a compound amount at 0 minute reaction time to be 100%.
The remaining rate at the compound concentration 0.5 μmol/L are shown below.

[3] = biological target: human ether-a-go-go related gene (hERG) channel (Homo sapiens (Human), UniProt Q12809); assay: hERG test (whole cell patch clamp, IKr); format: cell-based; details: CHO cells expressing hERG channel, IKr tail peak current
Text: For the purpose of assessing risk of an electrocardiogram QT interval prolongation of the compound of the present invention, effects of the compound of the present invention on delayed rectifier K+ current (IKr), which plays an important role in the ventricular repolarization process, was studied using CHO cells expressing human ether-a-go-go related gene (hERG) channel.
After a cell was retained at a membrane potential of −80 mV by whole cell patch clamp method using an automated patch clamp system (QPatch: Sophion Bioscience A/S) and gave a leak potential of −50 mV, IKr induced by depolarization pulse stimulation at +20 mV for 2 seconds and, further, repolarization pulse stimulation at −50 mV for 2 seconds, was recorded. […] From the recording IKr, an absolute value of the tail peak current was measured based on the current value at the resting membrane potential using analysis software (Falster Patch; Sophion Bioscience A/S). Further, the % inhibition relative to the tail peak current before application of the compound of the present invention was calculated, and compared with the vehicle-applied group (0.1% dimethyl sulfoxide solution) to assess influence of the compound of the present invention on IKr.

Chain of human ether-a-go-go related gene (hERG) channel (Q12809 whole entry): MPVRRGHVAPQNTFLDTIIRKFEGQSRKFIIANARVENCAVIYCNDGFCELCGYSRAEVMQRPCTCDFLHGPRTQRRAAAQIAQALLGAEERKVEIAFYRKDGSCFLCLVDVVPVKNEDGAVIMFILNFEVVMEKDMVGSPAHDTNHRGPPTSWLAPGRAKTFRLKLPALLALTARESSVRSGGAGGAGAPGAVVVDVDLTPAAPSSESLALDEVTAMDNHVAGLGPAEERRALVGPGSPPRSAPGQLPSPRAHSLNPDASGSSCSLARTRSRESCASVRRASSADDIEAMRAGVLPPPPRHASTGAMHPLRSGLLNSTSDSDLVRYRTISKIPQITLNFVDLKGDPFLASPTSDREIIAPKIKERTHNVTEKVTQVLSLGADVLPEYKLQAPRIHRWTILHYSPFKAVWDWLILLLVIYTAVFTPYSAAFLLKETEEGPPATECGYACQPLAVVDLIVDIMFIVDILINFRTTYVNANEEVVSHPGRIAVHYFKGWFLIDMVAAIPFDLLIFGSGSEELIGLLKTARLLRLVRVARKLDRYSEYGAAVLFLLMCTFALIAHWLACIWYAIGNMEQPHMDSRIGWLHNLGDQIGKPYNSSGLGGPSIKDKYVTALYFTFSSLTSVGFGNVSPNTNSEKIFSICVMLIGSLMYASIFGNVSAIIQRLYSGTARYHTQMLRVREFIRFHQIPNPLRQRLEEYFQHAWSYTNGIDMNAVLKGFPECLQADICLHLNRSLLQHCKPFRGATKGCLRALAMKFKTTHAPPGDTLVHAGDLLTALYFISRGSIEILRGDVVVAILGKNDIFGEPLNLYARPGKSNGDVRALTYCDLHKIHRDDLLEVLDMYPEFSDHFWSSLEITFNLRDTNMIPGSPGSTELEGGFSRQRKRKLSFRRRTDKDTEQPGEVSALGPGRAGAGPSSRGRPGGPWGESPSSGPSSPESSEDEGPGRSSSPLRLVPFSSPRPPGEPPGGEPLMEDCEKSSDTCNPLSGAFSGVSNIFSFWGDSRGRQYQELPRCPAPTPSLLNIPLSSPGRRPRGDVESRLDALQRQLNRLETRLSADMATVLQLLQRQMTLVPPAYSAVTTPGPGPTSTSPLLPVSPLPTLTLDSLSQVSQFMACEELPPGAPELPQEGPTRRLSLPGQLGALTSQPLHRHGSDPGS

| SMILES | solubility at 18 h [1] [µM] | Metabolism Stability [2] [%] | hERG Inhibition [3] [%] |
| --- | --- | --- | --- |
| C[C@@H](C(=O)O)[C@H](C)n1c(=O)[nH]/c(=N\c2ccc(Oc3ccc(F)cn3)c(F)c2)n(Cc2ccc(Cl)cc2)c1=O [Compound I-002] | > 50 | 99 | 7.3 |
| CC(C)(Cn1c(=O)[nH]/c(=N\c2ccc(Oc3ccc(Cl)cn3)cc2)n(Cc2ccc(Cl)cc2)c1=O)C(=O)O [Compound I-006] |  |  | 5.3 |
